# Measured values as given in ChEMBL document CHEMBL3885881, “DrugMatrix”.
# Organism: Rattus norvegicus
# Assay: DrugMatrix - Regimen: Daily Repeat
# Format: toxicity, organism-based, Sprague-Dawley
# Set-up: regimen Daily Repeat, gender Male, age 6-8 weeks
# Conditions: in vivo, sc, route subcutaneous, […]; for ABSOLUTE BASOPHIL / ABSOLUTE EOSINOPHIL / ABSOLUTE LYMPHOCYTE / ABSOLUTE MONOCYTE / ABSOLUTE SEGMENTED NEUTROPHIL / BASOPHIL / EOSINOPHIL / ERYTHROCYTE COUNT / HEMATOCRIT / LEUKOCYTE COUNT / MEAN CORPUSCULAR HEMOGLOBIN / MEAN CORPUSCULAR HEMOGLOBIN CONCENTRATION / MEAN CORPUSCULAR VOLUME / MONOCYTE / NEUTROPHIL / NUCLEATED RED BLOOD CELLS / PLATELET COUNT: tissue Blood; for ALANINE AMINOTRANSFERASE / ALBUMIN / ALKALINE PHOSPHATASE / ASPARTATE AMINOTRANSFERASE / BLOOD UREA NITROGEN / CHLORIDE / CHOLESTEROL / CREATINE PHOSPHOKINASE / CREATININE / GLUCOSE / LACTATE DEHYDROGENASE / LIPASE / PHOSPHORUS / POTASSIUM / TOTAL BILIRUBIN / URIC ACID: tissue Plasma
# [1] = 0 mg/kg, 72 h, dose level Control, time 3 day
# [2] = 0 mg/kg, 120 h, dose level Control, time 5 day
# [3] = 79 mg/kg, 72 h, dose level High, time 3 day
smiles,measurement,setting,value
C[C@H]1C[C@H]2[C@@H]3CCC4=CC(=O)C=C[C@]4(C)[C@@]3(F)[C@@H](O)C[C@]2(C)[C@@]1(O)C(=O)CO [BETAMETHASONE],ABSOLUTE BASOPHIL,[1],0 CELLS/uL
same,ABSOLUTE EOSINOPHIL,[1],0 CELLS/uL
same,ABSOLUTE LYMPHOCYTE,[1],10887 CELLS/uL
same,ABSOLUTE MONOCYTE,[1],56 CELLS/uL
same,ABSOLUTE SEGMENTED NEUTROPHIL,[1],1057 CELLS/uL
same,BASOPHIL,[1],0%
same,EOSINOPHIL,[1],0%
same,ERYTHROCYTE COUNT,[1],5.31 x10E6/uL
same,HEMATOCRIT,[1],33.78%
same,LEUKOCYTE COUNT,[1],12 x10E3/uL
same,MEAN CORPUSCULAR HEMOGLOBIN,[1],25.25 pg
same,MEAN CORPUSCULAR HEMOGLOBIN CONCENTRATION,[1],39.65 G/DL
same,MEAN CORPUSCULAR VOLUME,[1],63.65 fL
same,MONOCYTE,[1],0.5%
same,NEUTROPHIL,[1],8.33%
same,NUCLEATED RED BLOOD CELLS,[1],0 /100WBC
same,PLATELET COUNT,[1],1142 x10E3/uL
same,ALANINE AMINOTRANSFERASE,[1],57.17 u/L
same,ALBUMIN,[1],4.28 G/DL
same,ALKALINE PHOSPHATASE,[1],425.83 u/L
same,ASPARTATE AMINOTRANSFERASE,[1],93.83 u/L
same,BLOOD UREA NITROGEN,[1],14.17 mg/dL
same,CHLORIDE,[1],100 MEQ/L
same,CHOLESTEROL,[1],70.33 mg/dL
same,CREATINE PHOSPHOKINASE,[1],438.67 u/L
same,CREATININE,[1],0.19 mg/dL
same,GLUCOSE,[1],138.5 mg/dL
same,LACTATE DEHYDROGENASE,[1],190.17 u/L
same,LIPASE,[1],9.83 u/L
same,PHOSPHORUS,[1],11.05 mg/dL
same,POTASSIUM,[1],6.59 MEQ/L
same,TOTAL BILIRUBIN,[1],0.22 mg/dL
same,URIC ACID,[1],1.3 mg/dL
same,ABSOLUTE BASOPHIL,[2],0 CELLS/uL
same,ABSOLUTE EOSINOPHIL,[2],91.17 CELLS/uL
same,ABSOLUTE LYMPHOCYTE,[2],11847.67 CELLS/uL
same,ABSOLUTE MONOCYTE,[2],172.83 CELLS/uL
same,ABSOLUTE SEGMENTED NEUTROPHIL,[2],1105 CELLS/uL
same,BASOPHIL,[2],0%
same,EOSINOPHIL,[2],0.67%
same,ERYTHROCYTE COUNT,[2],5.35 x10E6/uL
same,HEMATOCRIT,[2],33.65%
same,LEUKOCYTE COUNT,[2],13.22 x10E3/uL
same,MEAN CORPUSCULAR HEMOGLOBIN,[2],25.12 pg
same,MEAN CORPUSCULAR HEMOGLOBIN CONCENTRATION,[2],39.9 G/DL
same,MEAN CORPUSCULAR VOLUME,[2],63 fL
same,MONOCYTE,[2],1.33%
same,NEUTROPHIL,[2],8.17%
same,NUCLEATED RED BLOOD CELLS,[2],0 /100WBC
same,PLATELET COUNT,[2],1347.83 x10E3/uL
same,ALANINE AMINOTRANSFERASE,[2],50 u/L
same,ALBUMIN,[2],4.1 G/DL
same,ALKALINE PHOSPHATASE,[2],329.17 u/L
same,ASPARTATE AMINOTRANSFERASE,[2],77.17 u/L
same,BLOOD UREA NITROGEN,[2],16.83 mg/dL
same,CHLORIDE,[2],99.83 MEQ/L
same,CHOLESTEROL,[2],75.67 mg/dL
same,CREATINE PHOSPHOKINASE,[2],295.83 u/L
same,CREATININE,[2],0.18 mg/dL
same,GLUCOSE,[2],156.33 mg/dL
same,LACTATE DEHYDROGENASE,[2],166.83 u/L
same,LIPASE,[2],9.83 u/L
same,PHOSPHORUS,[2],12.18 mg/dL
same,POTASSIUM,[2],6.69 MEQ/L
same,TOTAL BILIRUBIN,[2],0.22 mg/dL
same,URIC ACID,[2],1.6 mg/dL
same,ABSOLUTE BASOPHIL,[3],0 CELLS/uL
same,ABSOLUTE EOSINOPHIL,[3],18 CELLS/uL
same,ABSOLUTE LYMPHOCYTE,[3],1334 CELLS/uL
same,ABSOLUTE MONOCYTE,[3],44 CELLS/uL
same,ABSOLUTE SEGMENTED NEUTROPHIL,[3],3004 CELLS/uL
same,BASOPHIL,[3],0%
same,EOSINOPHIL,[3],0.33%
same,ERYTHROCYTE COUNT,[3],5.69 x10E6/uL
same,HEMATOCRIT,[3],36.67%
same,LEUKOCYTE COUNT,[3],4.4 x10E3/uL
same,MEAN CORPUSCULAR HEMOGLOBIN,[3],25.27 pg
same,MEAN CORPUSCULAR HEMOGLOBIN CONCENTRATION,[3],39.2 G/DL
same,MEAN CORPUSCULAR VOLUME,[3],64.47 fL
same,MONOCYTE,[3],1%
same,NEUTROPHIL,[3],69%
same,NUCLEATED RED BLOOD CELLS,[3],0 /100WBC
same,PLATELET COUNT,[3],1406 x10E3/uL
same,ALANINE AMINOTRANSFERASE,[3],146.33 u/L
same,ALBUMIN,[3],5.37 G/DL
same,ALKALINE PHOSPHATASE,[3],302 u/L
same,ASPARTATE AMINOTRANSFERASE,[3],178 u/L
same,BLOOD UREA NITROGEN,[3],25 mg/dL
same,CHLORIDE,[3],96.67 MEQ/L
same,CHOLESTEROL,[3],124.33 mg/dL
same,CREATINE PHOSPHOKINASE,[3],219.33 u/L
same,CREATININE,[3],0.27 mg/dL
same,GLUCOSE,[3],443 mg/dL
same,LACTATE DEHYDROGENASE,[3],492.67 u/L
same,LIPASE,[3],12.67 u/L
same,PHOSPHORUS,[3],11.8 mg/dL
same,POTASSIUM,[3],6.32 MEQ/L
same,TOTAL BILIRUBIN,[3],0.2 mg/dL
same,URIC ACID,[3],1.43 mg/dL
